Laboratory results: patent EP0084516B1, “Anthelmintics” (CIBA-GEIGY AG, priority 1982, dated 1983)
Several values for one entry are separate records, joined by “and”; a condition that tells them apart may be missing. Equal values may be shown once.

Experiments:
Fasciola hepatica [1] = experiment: Tests on sheep artificially infected with Fasciola hepatica metacercariae (faecal egg counts and adult fluke counts at autopsy); assay type: in vivo, Schafe; details: for Adulte Egel bei Autopsie Mittelwert: group mean
Protocol: Versuche an mit Fasciola hepatica infizierten Schafen
36 Schafe wurden artifiziell mit Metacercarien von Fasciola hepatica infiziert. Zu diesem Zweck wurden die Metacercarien in einer wäßrigen 0,4%igen Suspension von Carboxymethylcellulose direkt in den Rumen der Versuchstiere injiziert. Die Tiere wurden dann für die Medikierung in etwa gleichgroße Gruppen und in drei Kontrollgruppen eingeteilt. Nach 4 Wochen wurden die Wirkstoffe in Dosen von 5 bis 10 mg/kg Körpergewicht je nach vorgesehener Kombination an die Versuchstiere verabreicht.
Während des Versuchs wurden die Schafe in Gehegeboxen unter Normalbedingungen gehalten.
Zur Prüfung der Wirkung der einzelnen Wirkstoffkombinationen wurden mit einer Standardtechnik 12 bis 15 Wochen nach Infizierung bzw. 8 bis 11 Wochen nach Medikierung die von den Leberegeln abgelegten Eier im Kot gezählt. Anschließend wurden die Versuchstiere getötet, soweit sie nicht zur Gruppe B und Kontrollgrupe B' gehörten (Tiere Nr. 26-36), und es wurde die Zahl der vorhandenen Leberegel festgestellt.

Fasciola hepatica [2] = experiment: as above; assay type: in vivo, Schafe; details: B 4,6 mg/kg, individual sheep
[3] = test system: 6wöchige und jüngere Leberegel; details: comparable dose; from Austral. Vet. J. 55, 431-432, 1979; Brit. Vet. J. 138,371-382, 1982; cited from earlier work

## CSc1nc2cc(Cl)c(Oc3cccc(Cl)c3Cl)cc2[nH]1 [Substanz A, 5-Chlor-6-(2',3'-dichlorphenoxy)-2-methylthiobenzimidazol]
Fasciola hepatica [1]; A 5,0 mg/kg, given 4 weeks after infection, individual sheep
  Adulte Egel bei Autopsie Anzahl: 12 and 23 and 2 and 14 and 0
Fasciola hepatica [1]; A 5,0 mg/kg, given 4 weeks after infection, liver fluke eggs per g faeces, week 14 after infection, individual sheep
  EPG* 14. Woche: 65 pro gr Faeces and 60 pro gr Faeces and 0 pro gr Faeces (2×) and 10 pro gr Faeces
Fasciola hepatica [1]; A 5,0 mg/kg, given 4 weeks after infection, week 15 after infection, individual sheep
  EPG* 15. Woche: 125 pro gr Faeces and 60 pro gr Faeces and 5 pro gr Faeces and 0 pro gr Faeces (2×)
Fasciola hepatica [1]; A 5,0 mg/kg, sheep 1-5
  Adulte Egel bei Autopsie Mittelwert: 10,2
Fasciola hepatica [1]; A 5,0 mg/kg, versus untreated control A'
  Adulte Egel bei Autopsie % Reduktion: 89,4%

## CCCSc1ccc2nc(NC(=O)OC)[nH]c2c1 [Substanz B, [5-(Propylthio)-1 H-benzimidazol-2-yl]-carbaminsäuremethylester]
Fasciola hepatica [2]; given 4 weeks after infection, week 12 after infection
  EPG* 12. Woche: 360 pro gr Faeces and 370 pro gr Faeces and 290 pro gr Faeces and 880 pro gr Faeces
Fasciola hepatica [2]; week 13 after infection
  EPG* 13. Woche: 1110 pro gr Faeces and 560 pro gr Faeces and 370 pro gr Faeces and 1280 pro gr Faeces
[3]
  Wirkung gegen 6wöchige und jüngere Leberegel: unwirksam

## COC(=O)Nc1nc2ccc(Sc3ccccc3)cc2[nH]1 [Substanz C, [5-(Phenylthio)-1 H-benzimidazol-2-yl]-carbaminsäuremethylester, reference compound]
Fasciola hepatica [1]; C 5,0 mg/kg, given 4 weeks after infection, Tabelle 2, individual sheep
  Adulte Egel bei Autopsie Anzahl: 54 and 77 and 82
Fasciola hepatica [1]; C 5,0 mg/kg, Tabelle 2, sheep 20-22
  Adulte Egel bei Autopsie Mittelwert: 71
Fasciola hepatica [1]; C 5,0 mg/kg, Tabelle 2, versus untreated control C'
  Adulte Egel bei Autopsie % Reduktion: 0%
